Data from the NIST ThermoML archive (doi:10.1016/j.jct.2014.07.019).

Assay: xn = mol fraction of the nth substance listed
Conditions: 100 kPa, Liquid; for speed of sound: Frequency=3 MHz, Sing-around technique in a fixed-path interferometer; for mass density: Vibrating tube method

CCCCOCC(C)O (stereo not given) [1-butoxy-2-propanol] + CCC(C)O
Conditions | mass density, 293.15 K [kg/m3] | mass density, 298.15 K [kg/m3] | mass density, 303.15 K [kg/m3] | mass density, 308.15 K [kg/m3] | mass density, 313.15 K [kg/m3] | speed of sound, 293.15 K [m/s] | speed of sound, 298.15 K [m/s] | speed of sound, 303.15 K [m/s] | speed of sound, 308.15 K [m/s] | speed of sound, 313.15 K [m/s]
x1 = 0.0517 | 812.712 | 808.614 | 804.434 | 800.162 | 795.809 | 1234.4 | 1217.3 | 1201.4 | 1181.6 | 1163.6
x1 = 0.1014 | 818.284 | 814.152 | 809.949 | 805.653 | 801.286 | 1238.8 | 1221.5 | 1205.7 | 1186 | 1168
x1 = 0.1527 | 823.685 | 819.533 | 815.316 | 811.017 | 806.644 | 1243 | 1225.9 | 1209.6 | 1190 | 1172
x1 = 0.2041 | 828.704 | 824.532 | 820.316 | 816 | 811.61 | 1246.9 | 1229.4 | 1213.3 | 1194 | 1176
x1 = 0.2815 | 835.699 | 831.499 | 827.23 | 822.897 | 818.493 | 1252.2 | 1234 | 1218.3 | 1199.1 | 1181.2
x1 = 0.3581 | 841.995 | 837.767 | 833.49 | 829.144 | 824.735 | 1256.8 | 1238.2 | 1222.6 | 1203.6 | 1185.7
x1 = 0.4421 | 848.377 | 844.12 | 839.804 | 835.438 | 831.018 | 1261.1 | 1242.5 | 1226.7 | 1207.9 | 1190
x1 = 0.5348 | 854.7 | 850.417 | 846.095 | 841.719 | 837.299 | 1265.3 | 1246.8 | 1230.6 | 1212 | 1194.1
x1 = 0.627 | 860.446 | 856.141 | 851.795 | 847.417 | 842.98 | 1268.8 | 1250.7 | 1233.8 | 1215.3 | 1197.5
x1 = 0.7213 | 865.799 | 861.469 | 857.116 | 852.712 | 848.267 | 1271.6 | 1254 | 1236.5 | 1218.2 | 1200.3
x1 = 0.8116 | 870.476 | 866.131 | 861.747 | 857.328 | 852.892 | 1274 | 1256.4 | 1238.8 | 1220.6 | 1202.8
x1 = 0.8581 | 872.724 | 868.372 | 863.985 | 859.577 | 855.127 | 1275.3 | 1257.5 | 1239.8 | 1221.9 | 1204.1
x1 = 0.9062 | 874.964 | 870.61 | 866.21 | 861.774 | 857.32 | 1276.4 | 1258.6 | 1240.8 | 1222.8 | 1205
x1 = 0.9536 | 877.051 | 872.689 | 868.316 | 863.853 | 859.383 | 1277.7 | 1259.7 | 1242 | 1223.9 | 1206.1
x1 = 1 | 879.031 | 874.632 | 870.204 | 865.737 | 861.241 | 1279 | 1260.9 | 1242.9 | 1224.9 | 1207
